Test [1] deals with mesencephalic precursors expanded with bFGF for 11 days. Conditions: dopamine 1 nM-1 mM; cAMP 1 mM; DMEM/F12/N2.
For test [2], the system named is expanded and differentiated mesencephalic precursors. The experiment in a line: KCl evoked dopamine release of differentiated expanded precursors, HPLC. Type of test: cell-based, rat. The procedure:
Tissue culture was prepared as described in Example 1. The growth medium of expanded precursors from 3 independent culture series was collected after 5-7 days of differentiation under serum-free conditions and immediately stabilized by adding 88 μl of 85% orthophosphoric acid and 4.4 mg of metabisulfite to each sample ml. Additional cultures of the same series were placed in 5 ml Hank's basic salt solution (HBSS) for […] at 37° C. either under basal conditions (HBSS only) or under stimulation with 56 mM KCl. 56 mM KCl was added to assay evoked release, i.e., dopamine release in response to depolarization by KCl (depolarization by KCl leads to release of synaptic vesicles in neurons). This provides a more specific test than release in HBSS where synaptic release is not directly tested.
Dopamine staining was carried out on cultures using dopamine polyclonal 1:500 (Chemicon). The cultures were fixed in 5% glutaraldehyde and 1% metabisulfite in Tris buffer and then kept in metabisulfite containing solutions prior to incubation in the secondary antibody. Dopamine was extracted by aluminum adsorption as described by Studer et al. (1996) Brain Res.Bull. 41, 143-150. […] No dopamine was detected in unconditioned control medium and HBSS.

For test [3], the system named is E12 mesencephalic precursors. The experiment in a line: Dopaminergic differentiation of long-term expanded mesencephalic precursors, TH-ir cell count per well. The class given is cell-based, rat. Conditions: for effect of antioxidants on dopaminergic cell number: FIG. 5, FIG. 6. The method, then: Ascorbic acid was obtained from SIGMA (A-1417: Lot 105H0138) and used at various concentrations ranging from 1 nM-1 mM to obtain a dose-response curve. The effect of ascorbic acid on dopaminergic differentiation of long-term expanded mesencephalic precursors was tested during early and late proliferation as well as during cell differentiation.
Briefly, E12 mesencephalic precursors were proliferated for 12-14 days in vitro with 20 ng/ml bFGF (average expansion factor 40-200 fold) followed by 4-7 days of differentiation upon bFGF withdrawal and exposure to the various differentiation agents refers to the experimental assay in general. We tested the effects of many possible differentiation agents such as NGF, BDNF, NT3, NT4/5, GDNF, SHH, FGF8, interleukin1, Neurturin, cGMP and many others.
Cells were treated with 100 uM ascorbic acid. Ascorbic acid was dissolved in PBS with 0.1% bovine serum albumin at 100 mM stock solution. It was then used in 1:1000 dilution by adding it directly into the culture medium Cells were then fixed in 0.15% picric acid/4% paraformaldehyde and stained for tyrosine-hydroxylase (PelFreeze P40101-0). The number of TH-ir cells per well were scored using a stereological counting frame.
A dose response curve of the effect of stereoisomer D-iso-ascorbic acid was established using D-iso Ascorbic acid (I-0502 SIGMA). D-iso-ascorbic acid was used with the same protocol as L-ascorbic acid regarding stock solution, concentrations and mode of application. D-iso ascorbic acid has the same anti-oxydative properties but different other biological properties than ascorbic acid.

For test [4], the system named is differentiated mesencephalic precursor culture. The experiment in a line: Oxidative stress assays (lipid peroxydation, H2O2, oxidative stress marker staining). The class given is cell-based, rat. Conditions: data not shown. The procedure: Lipid peroxydation is a colorimetric assay (OXIS BIOXYTECH® LPO-568™; Oxis International Inc.) and was used according to the specifications of the manufacturer. H2O2 assay measures the conversion of 2′,7′ dicholorofluorescin diacetate (Molecular Probes d-399) into 2′,7′ dicholorofluorescin catalyzed by H2O2. The assay was performed according to the specifications of the manufacturer. Immunohistochemistry for oxidative stress markers by the DAB-peroxidase technique was performed on cells differentiated in the presence or absence of ascorbic acid, glutathione or […] plus ebselin.

Test [5] deals with bFGF expanded precursor derived TH+ neurons. Briefly: Dopamine release of precursor derived TH+ neurons, reverse phase HPLC with electrochemical detection. Conditions: conditioned medium, buffer solution, buffer + 56 mM KCl; FIG. 7 and 8. Type of test: cell-based, rat. The method, then: To test the biochemical function of precursor derived tyrosine hydroxylase expressing (TH+) neurons, the supernatant was tested for dopamine release using reverse phase HPLC with electrochemical detection. Dopamine levels were assessed in conditioned medium (24 hours of incubation), HBSS buffer (15 minutes), HBSS buffer +56 mM KCl. Dopamine was subsequently extracted by aluminum absorption and measured by reverse phase HPLC with electrochemical detection.

Test [6] has as its system expanded mesencephalic precursors differentiated as free floating reaggregates. The experiment in a line: Reaggregation system (roller drum) differentiation, immunohistochemistry of reaggregates. Type of test: cell-based, rat. Conditions: for total number of TH-ir cells/sphere in serum-supplemented medium: GDNF, BDNF, NT4/5 10 ng/ml, SHH 2.5 μg/ml, data not shown. The method, then: Cells were cultured as described in Example 1 and differentiated as free floating aggregates in a medium containing 10% fetal bovine serum (FBS) and maintained in a roller drum system. The cell suspension (200,000 cells/ml) was distributed in 15 ml Falcon tubes (1 ml/tube) and placed in a roller drum (Bellco) and rotated at a speed of 1-4 revolutions per minute and a temperature of 37° C. in a dry incubator (no additional humidity) in an atmosphere containing 5% CO2.
Medium in all these experiments described in this section was Neurobasal/B27 as described above. We tested the effect of GDNF, BDNF, SHH in the presence and in the absence of 10% fetal bovine serum (always with Neurobasal/B27 medium as a “basal medium”)
After 7 days, the test tubes were removed from the roller drum and the reaggregation of the cells was examined immunohistochemistry after sectioning the cells (see below). […] Reaggregates were fixed in 4% paraformalehyde/0.15 picric acid in PBS for 30-60 minutes at room temperature, equilibrated in 30% sucrose, cut into 20 um thick sections on a freezing microtome and adhered to a gelatine precoated glass carrier according to standard histological guidelines.
The differentiation medium for reaggregate cultures consisted of Neurobasal®/2% B27® (Gibco, Life Technologies) with or without fetal bovine serum (FBS; 10%, Gibco), glial derived neurotrophic factor (GDNF; 10 ng/ml; Peprotech), brain derived neurotrophic factor (BDNF; 10 ng/ml; Peprotech), neurotrophin 4/5 (NT4/5; 10 ng/ml; Peprotech), SHH (2.5 μg/ml; kindly provided by Dr. Thomas Muller, at the Labrotory of Molecular Biology, currently at the Max Delbrueck Univ. in Berlin; SHH is now commercially avail. fro R&D).
Using standard immunohistochemical procedures known to those of skill in the art, the following antibodies were used to examine the neuronal phenotypes present in differentiated aggregates: GABA polyclonal 1:2000 (SIGMA), serotonin polyclonal 1:8000 (SIGMA), ChAT polyclonal 1:500 (Chemicon), GFAP polyclonal 1:100 (Chemicon), GalC monoclonal 1:50 (Boehringer-Mannheim),
Total graft volume was estimated using the Cavalieri's estimator as described by Gundersen et al. (1988) APIMS 96, 379-394. TH-ir cells were counted within the outlined graft area as used for volume estimation. Uniform randomly chosen sections of individual reaggregates were analyzed for the total number of TH-ir cells by means of a stereological grid (fractionator). Conventional and confocal images were obtained with Axiophot and Axiovert microscopes respectively (Zeiss). Confocal image stacks were acquired by single and dual wavelength excitation at 488 and 568 nm. […] The effect of serum and growth factors was analyzed using ANOVA and Dunnett posthoc comparisons. […]

This note sets out measurements from patent US6787356B1, “Cell expansion system for use in neural transplantation” (The United States of America as represented by the …, priority 1998, dated 2004).

`NCCc1ccc(O)c(O)c1` [dopamine]: the “additional effect on yield of dopaminergic neurons in combination with ascorbic acid (100 uM)” value in test [1] is recorded as “no significant additional effect”.
`[Cl-].[K+]` [KCl]: the “increase in dopamine levels in the supernatant” value in test [2] (56 mM KCl in HBSS for 25 minutes vs HBSS only) is given as 3-4 fold. For the same molecule, the “dopamine level in the supernatant, evoked release” value in test [2] (56 mM KCl in HBSS for 25 minutes, N=3) is on record as 572+/−145 pg dopamine/ml.
With `N[C@@H](CCC(=O)N[C@@H](CS)C(=O)NCC(=O)O)C(=O)O` [glutathione], the “effect of antioxidants on dopaminergic cell number” value (shortened to “effect of antioxidants”) in test [3] is recorded as “none of the antioxidants tested influenced dopaminergic cell number”.
As to `O=C1O[C@H]([C@@H](O)CO)C(O)=C1O` [ascorbic acid], in test [3] (100 uM, 12-14 days expansion, 4-7 days differentiation), the “yield of dopaminergic neurons compared with other differentiation agents tested” value is given as “most effective agent of all agents tested”. Also, in test [3] (FIG. 6), the “effect on dopaminergic yield, treatment during cell differentiation (P1 diff.)” value is on record as “acts mostly during the differentiation phase”; the “effect on dopaminergic yield, treatment during early expansion (Po exp.)” value is listed as “small improvement in dopaminergic yield”; the “effect on dopaminergic yield, treatment during late expansion (P1 exp.)” value is on record as “slightly negative effect”. The “concentration of maximal effect on TH-ir cell number (dose-response)” value in test [3] (during cell differentiation, range 1 nM-1 mM, FIG. 5) was found to be 100 µM. For the same molecule, the “differences to control in lipid peroxydation, H2O2 levels and staining intensity for oxydative stress markers” value in test [4] was “No significant differences”. Moreover, in test [5], the “dopamine levels after treatment, long-term expanded precursors (P1)” value is recorded as “significant increase” and the “dopamine levels after treatment, short term expanded precursors (Po)” value is “significant increase”.
Take `O=c1c2ccccc2[se]n1-c1ccccc1` [ebselin]: the “effect of antioxidants” value in test [3] is “none of the antioxidants tested influenced dopaminergic cell number”.
On to `CC(=O)N[C@H](CS)C(=O)O` [D-acetylcystein], for which the “effect of antioxidants” value in test [3] is on record as “none of the antioxidants tested influenced dopaminergic cell number”.
With `O=C1O[C@H]([C@H](O)CO)C(O)=C1O` [D-iso ascorbic acid, D-iso-ascorbic acid], the “number of dopaminergic neurons, lower than in the ascorbic acid group” value in test [3] (optimum concentration of 100 μM) was determined as 48%.

B1: GDNF: glial derived neurotrophic factor, Peprotech (protein, UniProt P39905 78-211, looked up)
Glial cell line-derived …: SPDKQMAVLPRRERNRQAAAANPENSRGKGRRGQRGKNRGCVLTAIHLNVTDLGLGYETKEELIFRYCSGSCDAAETTYDKILKNLSRNRRLVSDKVGQACCRPIAFDDDLSFLDDNLVYHILRKHSAKRCGCI
B1: in test [6] (GDNF 10 ng/ml, N=8, p<0.05 vs control), the “TH-ir cell yield under serum-free conditions” value is 3451+/−621. In test [6], the “total number of TH-ir cells/sphere in serum-supplemented medium” value (“total number of TH-ir cells/sphere” below) is given as “did not cause a significant increase”.

B2: BDNF: brain derived neurotrophic factor, Peprotech (protein, UniProt P23560 19-247, looked up)
Neurotrophic factor BDNF …: APMKEANIRGQGGLAYPGVRTHGTLESVNGPKAGSRGLTSLADTFEHVIEELLDEDQKVRPNEENNKDADLYTSRVMLSSQVPLEPPLLFLLEEYKNYLDAANMSMRVRRHSDPARRGELSVCDSISEWVTAADKKTAVDMSGGTVTVLEKVPVSKGQLKQYFYETKCNPMGYTKEGCRGIDKRHWNSQCRTTQSYVRALTMDSKKRIGWRFIRIDTSCVCTLTIKRGR
As to B2, the “total number of TH-ir cells/sphere” value in test [6] is on record as “did not cause a significant increase”.

B3: NT4/5: neurotrophin 4/5, Peprotech (protein, UniProt P34130 81-210, looked up)
Neurotrophin-4: GVSETAPASRRGELAVCDAVSGWVTDRRTAVDLRGREVEVLGEVPAAGGSPLRQYFFETRCKADNAEEGGPGAGGGGCRGVDRRHWVSECKAKQSYVRALTADAQGRVGWRWIRIDTACVCTLLSRTGRA
In the case of B3, in test [6], the “total number of TH-ir cells/sphere” value is “did not cause a significant increase”.
